Experimental data taken from ChEMBL document CHEMBL3098065, “Discovery of Pyridyl Bis(oxy)dibenzimidamide Derivatives as Selective Matriptase Inhibitors” (ACS Med Chem Lett, 2013).
Converted amounts (≈) assume the structure as drawn.

Experiments:
[1] = biological target: Prothrombin (Homo sapiens, UniProt P00734); assay: Inhibition of thrombin (unknown origin) by fluorescence assay
[2] = biological target: Trypsin (Homo sapiens, UniProt P07477+P07478+P35030); assay: Inhibition of trypsin (unknown origin) by fluorescence assay; format: protein assay
[3] = biological target: T1, Suppressor of tumorigenicity 14 protein (Homo sapiens, UniProt Q9Y5Y6); assay: Inhibition of matriptase-SP1 (615 to 855) (unknown origin) expressed in Escherichia coli BL21(DE3) using Boc-Gln-Ala-Arg-7-amido-4-methyl coumarin hydrobromide as substrate by fluorescence assay
T1 sequence (Q9Y5Y6 whole entry): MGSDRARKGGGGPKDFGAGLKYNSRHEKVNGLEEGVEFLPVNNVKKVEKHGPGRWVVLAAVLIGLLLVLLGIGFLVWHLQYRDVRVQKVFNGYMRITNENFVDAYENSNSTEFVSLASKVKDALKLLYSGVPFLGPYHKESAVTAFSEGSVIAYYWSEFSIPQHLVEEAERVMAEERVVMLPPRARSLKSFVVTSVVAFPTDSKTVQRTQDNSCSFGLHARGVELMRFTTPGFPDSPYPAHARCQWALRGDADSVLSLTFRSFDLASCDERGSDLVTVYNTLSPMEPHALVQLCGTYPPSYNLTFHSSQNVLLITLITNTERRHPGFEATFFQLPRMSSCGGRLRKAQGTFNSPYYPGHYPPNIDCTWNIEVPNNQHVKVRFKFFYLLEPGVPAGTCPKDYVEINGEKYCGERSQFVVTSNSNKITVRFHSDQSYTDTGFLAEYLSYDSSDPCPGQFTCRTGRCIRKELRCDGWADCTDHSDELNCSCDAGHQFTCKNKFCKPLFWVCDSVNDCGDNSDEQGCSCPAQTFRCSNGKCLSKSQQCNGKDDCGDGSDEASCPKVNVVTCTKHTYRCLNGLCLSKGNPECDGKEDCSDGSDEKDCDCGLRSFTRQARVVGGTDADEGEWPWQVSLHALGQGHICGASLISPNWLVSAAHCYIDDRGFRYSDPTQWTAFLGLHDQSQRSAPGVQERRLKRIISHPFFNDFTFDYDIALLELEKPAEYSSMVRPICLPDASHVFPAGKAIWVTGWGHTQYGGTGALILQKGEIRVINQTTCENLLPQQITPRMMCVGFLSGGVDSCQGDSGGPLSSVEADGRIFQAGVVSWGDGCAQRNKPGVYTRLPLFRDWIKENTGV

[4] = biological target: Coagulation factor X (Homo sapiens, UniProt P00742); assay: Inhibition of factor 10a (unknown origin) using CH3OCO-D-CHA-Gly-Arg-pNA.AcoH as substrate
Coagulation factor X, sequence (P00742 41-179 limits assumed): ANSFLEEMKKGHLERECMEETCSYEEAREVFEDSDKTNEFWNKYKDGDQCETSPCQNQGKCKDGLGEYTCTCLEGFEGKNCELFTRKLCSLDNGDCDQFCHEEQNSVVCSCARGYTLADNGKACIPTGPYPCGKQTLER
Coagulation factor X, sequence (P00742 235-488 limits assumed): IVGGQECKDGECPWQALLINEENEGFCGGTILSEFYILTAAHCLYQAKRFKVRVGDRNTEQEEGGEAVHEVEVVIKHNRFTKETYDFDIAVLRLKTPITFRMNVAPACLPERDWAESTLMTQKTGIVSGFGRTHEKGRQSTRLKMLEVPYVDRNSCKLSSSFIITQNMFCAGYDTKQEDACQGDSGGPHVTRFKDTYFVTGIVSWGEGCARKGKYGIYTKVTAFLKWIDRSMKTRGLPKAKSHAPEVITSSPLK

[5] = biological target: Urokinase-type plasminogen activator (Homo sapiens, UniProt P00749); assay: Inhibition of uPA (unknown origin) using L-PyroGlu-Gly-Arg-pNA.HCl as substrate
[6] = Metabolic stability in mouse liver microsomes assessed as compound remaining at 1 uM after 40 mins by LC-MS/MS analysis; format: ADME, Microsome; conditions: read-out: Stability
[7] = Metabolic stability in mouse liver microsomes assessed as compound remaining at 1 uM after 20 mins by LC-MS/MS analysis; format: ADME, Microsome; conditions: read-out: Stability
[8] = Kinetic aqueous solubility of the compound at pH 7.4 after 16 hrs by shake flask method; format: physicochemical; conditions: read-out: Kinetic_solubility
[9] = tested on: DU-145; assay: Antiinvasive activity against human DU145 cells at 10 uM incubated overnight followed by fibronectin addition measured after 48 hrs by calcein AM assay relative to control; format: functional; conditions: DU-145, 48 h
[10] = tested on: DU-145; assay: Antimigratory activity against human DU145 cells at 10 uM incubated overnight followed by fibronectin addition measured after 24 hrs by calcein AM assay relative to control; format: functional; conditions: DU-145, 24 h
[11] = tested on: PC-3; assay: Antiinvasive activity against human PC3 cells at 10 uM incubated overnight followed by fibronectin and HGF addition measured after 48 hrs by calcein AM assay relative to control; format: functional; conditions: PC-3, 48 h
[12] = tested on: PC-3; assay: Antimigratory activity against human PC3 cells at 10 uM incubated overnight followed by fibronectin and HGF addition measured after 24 hrs by calcein AM assay relative to control; format: functional; conditions: PC-3, 24 h
[13] = tested on: DU-145; assay: Cytotoxicity against human DU145 cells at 10 uM after 72 hrs by calcein AM assay relative to control; format: functional
[14] = tested on: PC-3; assay: Cytotoxicity against human PC3 cells at 10 uM after 72 hrs by calcein AM assay relative to control; format: functional

Ki [1] [µM]	Ki [2] [µM]	Ki [3] [µM]	Ki [4] [µM]	Ki [5] [µM]	remaining at 40 min, 1 µM [6] [%]	remaining at 20 min, 1 µM [7] [%]	solubility kinetic at 16 h [8] [µM]	SMILES	inhibition at 10 µM [9] [%]	inhibition at 10 µM [10] [%]	inhibition at 10 µM [11] [%]	inhibition at 10 µM [12] [%]	Activity [13] [%]	Activity [14] [%]
0.6	2.8	9.6						N=C(N)c1ccc(Oc2cccc(Oc3ccc(C(=N)N)cc3)n2)cc1						
2.1	0.3	0.4	0.3	> 10				N=C(N)c1ccc(Oc2ccc(C(=O)NCCCN)c(Oc3ccc(C(=N)N)cc3)n2)cc1						
> 2.5	3.6	0.2	1.5	> 10				N=C(N)c1ccc(Oc2ccc(C(=O)N3CCC(CCN)CC3)c(Oc3ccc(C(=N)N)cc3)n2)cc1						
> 2.5	2.2	0.1	0.2	> 10				N=C(N)c1ccc(Oc2cc(C(=O)N3CCC(CCN)CC3)cc(Oc3ccc(C(=N)N)cc3)n2)cc1						
2.9		0.04	0.1	> 10				N=C(N)c1ccc(Oc2cc(C(=O)NC3CCN(CCCN)CC3)cc(Oc3ccc(C(=N)N)cc3)n2)cc1						
2.5	2.4	0.04	0.4	> 10	95.6	100	196 (≈ 95.6 µg/mL)	N=C(N)c1ccc(Oc2cc(C(=O)N[C@H]3CC[C@H](N)CC3)cc(Oc3ccc(C(=N)N)cc3)n2)cc1	69	65	42	53	0	1
4.4	5.5	2.9	1.2	> 10				N=C(N)c1ccc(Oc2ccc(N)c(Oc3ccc(C(=N)N)cc3)n2)cc1						
4.1	1.4	0.2	0.3	> 10	86.5	89	194 (≈ 101 µg/mL)	N=C(N)c1ccc(Oc2ccc(NS(=O)(=O)c3ccc(F)cc3)c(Oc3ccc(C(=N)N)cc3)n2)cc1	61	69	60	65	0	0
		1.2		> 10				N=C(N)c1ccc(Oc2ccc(NS(=O)(=O)c3cc(F)cc(F)c3)c(Oc3ccc(C(=N)N)cc3)n2)cc1						
5.8	1.3	0.04	0.3	> 10	73.2	76.4	191 (≈ 106 µg/mL)	N=C(N)c1ccc(Oc2ccc(NS(=O)(=O)c3ccc4ccccc4c3)c(Oc3ccc(C(=N)N)cc3)n2)cc1	47	59	42	39	20	20
		0.2		> 10				N=C(N)c1ccc(Oc2ccc(NS(=O)(=O)c3cccc4cccnc34)c(Oc3ccc(C(=N)N)cc3)n2)cc1						
3.4	2	0.5	0.6	> 10				N=C(N)c1ccc(Oc2ccc(C(=O)N[C@H]3CC[C@H](N)CC3)c(Oc3ccc(C(=N)N)cc3)n2)cc1						
3.6		0.6	2.3	> 10				N=C(N)c1ccc(Oc2ccc(C(=O)NC3CCN(C(=O)CCN)CC3)c(Oc3ccc(C(=N)N)cc3)n2)cc1						
		400						N=C(N)c1ccccc1 [BENZAMIDINE]						
